Data reported in patent US7968526B2, “Antisense oligonucleotides directed to ribonucleotide reductase R2 and uses thereof in the treatment of cancer” (Lorus Therapeutics Inc., priority 2003, dated 2011).

Assays:
[1] = test system: HT-29 human colon cancer cells; assay: HT-29 colon tumour xenograft in nude mice, combination with CPT-11 (1.2); type: in vivo, human cells in mice; details: HT-29 (colon), CD-1; SEQ ID NO:1 10 mg/kg i.v. every other day; CPT-11 20 mg/kg i.p. days 7-12
Source text: All treatments were stopped at day 22. […] All treatments were stopped at day 32. […] All treatments were stopped at day 36.

[2] = test system: LS513 multi-drug resistant colon carcinoma cells; assay: LS513 multi-drug resistant colon carcinoma xenograft in SCID mice, combination with CPT-11 (2.8); type: in vivo, human cells in mice; details: LS513 (colon) multi-drug resistant (CPT-11 sensitive), SCID; SEQ ID NO:1 10 mg/kg i.v. every other day; CPT-11 20 mg/kg/day i.p. 5 days
Experimental: (§1) BxPC-3 is a gemcitabine resistant call line. […] Gemcitabine was administered intravenously every three days at a dose of 100 mg/kg. Antitumour activities were estimated by the inhibition of tumour volume, which was measured with caliper. Each point represents mean tumour volume calculated from 10 animals per experimental group. […] Hela S3 is a hydroxyurea resistant cell line. […] Hydroxyurea was administered intraperitoneally every day at a dose of 250 mg/kg for 10 days. Cisplatin was administered intravenously once a week for three weeks at a dose of 4 mg/kg. Antitumour activities were estimated by the inhibition of tumour volume, which was measured with caliper. Each point represents mean tumour volume calculated from 10 animals per experimental group. […] Cisplatin was administered intravenously once a week for three weeks at a dose of 4 mg/kg. Taxol was administered intravenously once a week for three weeks at a dose of 10 mg/kg. Antitumour activities were estimated by the inhibition of tumour volume, which was measured with caliper. Each point represents mean tumour volume calculated from 10 animals per experimental group. […] Taxol was administered i.p. once a week at a dose of 10 mg/kg. Antitumour activities were estimated by the inhibition of tumour volume (FIG. 12A), which was measured with calipers. Each point represents mean tumour volume calculated from 10 animals per experimental group. […] Antitumour activities were estimated by the inhibition of tumour volume, which was measured with caliper. Each point represents mean tumour volume calculated from 9-10 animals per experimental group. […] Antitumour activities were estimated by the inhibition of tumour volume, which was measured with caliper. Each point represents mean tumour volume calculated from 10 animals per experimental group. […] Anti-tumour activity was estimated by the inhibition of tumour volume, which was measured with caliper. Each point represents mean tumour volume calculated from 10 animals per experimental group. […] Antitumour activities were estimated by the inhibition of tumour volume, which was measured with caliper. […]

[3] = test system: SK-OV-3 human ovary adenocarcinoma cells; assay: SK-OV-3 ovary tumour xenograft in CD-1 nude mice, combination with taxol or cisplatin (1.8); type: in vivo, human cells in mice; details: SK-OV-3 (ovary), CD-1; SEQ ID NO:1 10 mg/kg i.v. every other day 17 times; Taxol 10 mg/kg weekly; Cisplatin 4 mg/kg weekly
Experimental: After 52 days the mice were sacrificed and the tumours weighed. […] Mitoxantrone was administered intravenously once at the beginning of the treatments at a dose of 2 mg/kg (FIG. 4A) or once a week for four weeks at a reduced dose of 0.8 mg/kg (FIG. 4B). All treatments were stopped at day 50 (FIG. 4A) or 48 (FIG. 4B), respectively. […] Mitoxantrone was administered intravenously once at the beginning of the treatments at a dose of 2 mg/kg (FIG. 5A) or once a week for four weeks at a reduced dose of 0.8 mg/kg (FIG. 5B). All treatments were stopped at day 42 (FIG. 5A) or 38 (FIG. 5B), respectively. […] A2058 is a metastatic melanoma cell line. […] All treatments were stopped at day 24. […] Taxol was administered intravenously once a week at a dose of 10 mg/kg for three (FIG. 7A) or four weeks (FIG. 7C). Doxorubicin was administered intravenously once a week at a dose of 5 mg/kg for first three weeks (FIG. 7A) or for two weeks (FIG. 7C). All treatments were stopped at day 33 (FIG. 7A) or at day 26 (FIG. 7C), respectively. […] In FIG. 7C, antitumour activities were estimated by the inhibition of tumour volume, which was measured with calipers. Each point represents mean tumour volume calculated from 10 animals per experimental group. […] Taxol was administered intravenously once a week for first three weeks and intraperitoneally once a week for next two weeks at a dose of 10 mg/kg. Cisplatin was administered intravenously once a week for first three weeks and intraperitoneally once a week for next two weeks at a dose of 4 mg/kg. All treatments were stopped at day 40. Antitumour activities were estimated by the inhibition of tumour volume, which was measured with caliper. Each point represents mean tumour volume calculated from 9 animals per experimental group.

[4] = test system: Hela S3 human cervix epitheloid carcinoma cells; assay: Hela S3 hydroxyurea resistant cervix carcinoma xenograft in SCID mice; type: in vivo, human cells in mice; details: Hela S3 (cervix), hydroxyurea resistant, SCID; SEQ ID NO:1 10 mg/kg i.v. every other day 6 times; Hydroxyurea 250 mg/kg i.p. daily 10 days; Cisplatin 4 mg/kg i.v. weekly x3
Experimental: BxPC-3 is a gemcitabine resistant call line. […] Gemcitabine was administered intravenously every three days at a dose of 100 mg/kg. Antitumour activities were estimated by the inhibition of tumour volume, which was measured with caliper. Each point represents mean tumour volume calculated from 10 animals per experimental group. […] Hela S3 is a hydroxyurea resistant cell line. […] Hydroxyurea was administered intraperitoneally every day at a dose of 250 mg/kg for 10 days. Cisplatin was administered intravenously once a week for three weeks at a dose of 4 mg/kg. Antitumour activities were estimated by the inhibition of tumour volume, which was measured with caliper. Each point represents mean tumour volume calculated from 10 animals per experimental group. […] Cisplatin was administered intravenously once a week for three weeks at a dose of 4 mg/kg. Taxol was administered intravenously once a week for three weeks at a dose of 10 mg/kg. Antitumour activities were estimated by the inhibition of tumour volume, which was measured with caliper. Each point represents mean tumour volume calculated from 10 animals per experimental group. […] Taxol was administered i.p. once a week at a dose of 10 mg/kg. Antitumour activities were estimated by the inhibition of tumour volume (FIG. 12A), which was measured with calipers. Each point represents mean tumour volume calculated from 10 animals per experimental group. Animals were sacrificed and tumour weights taken at the end of the study (FIG. 12C). […] The effects of combined treatment were greater than either treatment alone. […] Cisplatin was administered intravenously once a week for four weeks at a dose of 4 mg/kg. Taxol was administered intravenously once a week for four weeks at a dose of 20 mg/kg. Antitumour activities were estimated by the inhibition of tumour volume, which was measured with caliper. Each point represents mean tumour volume calculated from 9-10 animals per experimental group. […] Cisplatin was administered intravenously once a week for four weeks at a dose of 4 mg/kg. Antitumour activities were estimated by the inhibition of tumour volume, which was measured with caliper. Each point represents mean tumour volume calculated from 10 animals per experimental group. At the end of the study the animals were sacrificed and tumours weighed. […] Taxol was administered i.p. once a week at a dose of 10 mg/kg. Anti-tumour activity was estimated by the inhibition of tumour volume, which was measured with caliper. Each point represents mean tumour volume calculated from 10 animals per experimental group. In addition animals were sacrificed and tumour weights taken at the end of the study. […] CPT-11 was administered i.p. for 5 days at a dose of 20 mg/kg/day. Antitumour activities were estimated by the inhibition of tumour volume, which was measured with caliper. Each point represents mean tumour volume calculated from 10 animals per experimental group. Tumour weights were measured after animals were sacrificed at the end of the treatment. These cells are not resistant to CPT-11 which was used as a positive control.

[5] = test system: MDA-CDDP-S4 human in vivo-selected Cisplatin-resistant breast adenocarcinoma cells; assay: MDA-CDDP-S4 Cisplatin-resistant breast adenocarcinoma, fat pad, SCID mice (2.3); design: species or system human cells in mice
Experimental: (§2) BxPC-3 is a gemcitabine resistant call line. […] Gemcitabine was administered intravenously every three days at a dose of 100 mg/kg. Antitumour activities were estimated by the inhibition of tumour volume, which was measured with caliper. Each point represents mean tumour volume calculated from 10 animals per experimental group. […] Hela S3 is a hydroxyurea resistant cell line. […] Hydroxyurea was administered intraperitoneally every day at a dose of 250 mg/kg for 10 days. Cisplatin was administered intravenously once a week for three weeks at a dose of 4 mg/kg. Antitumour activities were estimated by the inhibition of tumour volume, which was measured with caliper. Each point represents mean tumour volume calculated from 10 animals per experimental group. […] Cisplatin was administered intravenously once a week for three weeks at a dose of 4 mg/kg. Taxol was administered intravenously once a week for three weeks at a dose of 10 mg/kg. Antitumour activities were estimated by the inhibition of tumour volume, which was measured with caliper. Each point represents mean tumour volume calculated from 10 animals per experimental group. […] Taxol was administered i.p. once a week at a dose of 10 mg/kg. Antitumour activities were estimated by the inhibition of tumour volume (FIG. 12A), which was measured with calipers. Each point represents mean tumour volume calculated from 10 animals per experimental group. Animals were sacrificed and tumour weights taken at the end of the study (FIG. 12C). […] Cisplatin was administered intravenously once a week for four weeks at a dose of 4 mg/kg. Taxol was administered intravenously once a week for four weeks at a dose of 20 mg/kg. Antitumour activities were estimated by the inhibition of tumour volume, which was measured with caliper. Each point represents mean tumour volume calculated from 9-10 animals per experimental group. […] Cisplatin was administered intravenously once a week for four weeks at a dose of 4 mg/kg. Antitumour activities were estimated by the inhibition of tumour volume, which was measured with caliper. Each point represents mean tumour volume calculated from 10 animals per experimental group. At the end of the study the animals were sacrificed and tumours weighed. […] Taxol was administered i.p. once a week at a dose of 10 mg/kg. Anti-tumour activity was estimated by the inhibition of tumour volume, which was measured with caliper. Each point represents mean tumour volume calculated from 10 animals per experimental group. In addition animals were sacrificed and tumour weights taken at the end of the study. […] CPT-11 was administered i.p. for 5 days at a dose of 20 mg/kg/day. Antitumour activities were estimated by the inhibition of tumour volume, which was measured with caliper. Each point represents mean tumour volume calculated from 10 animals per experimental group. Tumour weights were measured after animals were sacrificed at the end of the treatment. These cells are not resistant to CPT-11 which was used as a positive control.

[6] = test system: MDA-MB435-To.1 human Taxol-resistant breast adenocarcinoma cells; assay: MDA-MB435-To.1 Taxol-resistant breast adenocarcinoma, fat pad, SCID mice (2.5); type: in vivo, human cells in mice; details: MDA-MB435-To.1 (breast), Taxol resistant, SCID; SEQ ID NO:1 10 mg/kg i.v. every other day 15 times; Taxol 20 mg/kg, Cisplatin 4 mg/kg i.v. weekly x4
Experimental: as §2

[7] = test system: MDA-MB435-To.1 human Taxol-resistant breast adenocarcinoma cells; assay: MDA-MB435-To.1 Taxol-resistant breast adenocarcinoma, fat pad, CB-17 SCID mice, combination with Cisplatin (2.6); type: in vivo, human cells in mice; details: MDA-MB435-To.1 (breast), Taxol resistant, CB-17/SCID; SEQ ID NO:1 10 mg/kg i.v. every other day; Cisplatin 4 mg/kg i.v. weekly x4
Experimental: as §1

Structure (SMILES)	Tumour weight as % of saline control [1]	Tumour weight as % of saline control [2]	tumour volume data as percentage of saline control [3]	Tumour weight as % of saline control [4]	Tumour weight as % of saline control ([5]; MDA-CDDP-S4 (breast), Cisplatin resistant, SCID, SEQ ID NO:1 10 mg/kg i.v. every other day 9 times, Taxol 10 mg/kg, Cisplatin 4 mg/kg i.v. weekly x3)	Antitumour effect (FIG. 11) ([5]; MDA-CDDP-S4 Cisplatin-resistant, SCID mice, SEQ ID NO:1 10 mg/kg i.v. every other day, Cisplatin 4 mg/kg, Taxol 10 mg/kg i.v. weekly)	Tumour weight as % of saline control [6]	Tumour weight as % of saline control [7]
CCc1c2c(nc3ccc(OC(=O)N4CCC(N5CCCCC5)CC4)cc13)-c1cc3c(c(=O)n1C2)COC(=O)[C@]3(O)CC [CPT-11, irinotecan, reference compound]	36%	47%	–	–	–	–	–	–
N.N.[Cl][Pt][Cl] [Cisplatin, reference compound]	–	–	67%	63%	78%	ineffective against Cisplatin-resistant tumour	69%	56%
